Reference: the supplement of paper PMC10307832

compound: CN(C)C(=N)NC(=N)N [Metformin] + Nc1nc2[nH]cc(CCc3ccc(C(=O)N[C@@H](CCC(=O)O)C(=O)O)cc3)c2c(=O)[nH]1 [Pemetrexed] (partner 0.2 µM); experiment: relative viability (nuclei count vs DMSO), 5 days (fraction); higher = more cells survive; settings: first compound 10 µM
In short: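 Medians of duplicate plates are given as relative viability. That measure is the nuclei count in treated wells divided by the count in vehicle wells. Counts were taken on 4× images of lung cancer cell lines in 1536-well plates, 5 days after pin-tool dosing the day after seeding with one drug alone or a fixed anchor-drug dose plus five library-drug doses (not always all listed) in √10 steps.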

Compared with A-427, BEN is higher in relative viability: 0.972 for the first, 1.11 for the second.

Going from CAL-12T to COR-L23, the relative viability falls from 1.05 to 0.196.

First: COR-L 105
Second: ChaGo-K-1
The relative viability of the first is higher: 1.12 for the first, 0.259 for the second.

Compared with EMC-BAC-2, EPLC-272H is higher in relative viability: 0.429 for the first, 0.467 for the second.

Going from H3255 to HARA, the relative viability falls from 0.55 to 0.323.

Going from HCC-15 to LK-2, the relative viability rises from 0.233 to 0.319.

Going from NCI-H358 to NCI-H522, the relative viability rises from 0.156 to 1.15.

Going from NCI-H1395 to NCI-H1563, the relative viability falls from 1.05 to 0.874.

First: NCI-H1792
Second: NCI-H1793
The relative viability of the first is lower: 0.968 for the first, 1.16 for the second.

Compared with NCI-H1944, NCI-H2170 is lower in relative viability: 0.505 for the first, 0.238 for the second.

Compared with SK-MES-1, SW 900 is lower in relative viability: 0.532 for the first, 0.52 for the second.

same assay, conditions: first compound 31.62 µM

Going from 201T to A-427, the relative viability rises from 0.329 to 1.05.

Going from BEN to CAL-12T, the relative viability falls from 1.08 to 1.04.

First: COR-L23
Second: COR-L 105
The relative viability of the first is lower: 0.186 for the first, 1.26 for the second.

Going from ChaGo-K-1 to EKVX, the relative viability rises from 0.277 to 0.301.

First: EMC-BAC-2
Second: EPLC-272H
The relative viability of the first is higher: 0.488 for the first, 0.345 for the second.

First: H3255
Second: HARA
The relative viability of the first is higher: 0.556 for the first, 0.28 for the second.

First: HCC-15
Second: HCC-44
The relative viability of the first is lower: 0.21 for the first, 0.593 for the second.

Going from LK-2 to NCI-H358, the relative viability falls from 0.292 to 0.182.

First: NCI-H522
Second: NCI-H1395
The relative viability of the first is higher: 1.21 for the first, 1.1 for the second.

First: NCI-H1563
Second: NCI-H1648
The relative viability of the first is higher: 0.899 for the first, 0.664 for the second.

Going from NCI-H1792 to NCI-H1793, the relative viability falls from 0.862 to 0.826.

Going from NCI-H1944 to NCI-H2170, the relative viability falls from 0.75 to 0.281.

First: NCI-H2342
Second: SK-MES-1
The relative viability of the first is higher: 1.13 for the first, 0.721 for the second.

Cell Line SW 900 has a relative viability of 0.479.

same assay, conditions: first compound 100 µM

Going from 201T to A-427, the relative viability rises from 0.313 to 1.

Going from BEN to CAL-12T, the relative viability rises from 0.733 to 1.26.

Compared with COR-L23, COR-L 105 is higher in relative viability: 0.209 for the first, 1.33 for the second.

First: ChaGo-K-1
Second: EKVX
The relative viability of the first is lower: 0.259 for the first, 0.417 for the second.

Compared with EMC-BAC-2, EPLC-272H is lower in relative viability: 0.452 for the first, 0.429 for the second.

Going from H3255 to HARA, the relative viability falls from 0.567 to 0.327.

Going from HCC-15 to HCC-44, the relative viability rises from 0.207 to 0.593.

First: LK-2
Second: NCI-H358
The relative viability of the first is higher: 0.255 for the first, 0.146 for the second.

First: NCI-H522
Second: NCI-H1395
The relative viability of the first is higher: 1.25 for the first, 0.998 for the second.

Going from NCI-H1563 to NCI-H1648, the relative viability rises from 0.847 to 0.876.

Compared with NCI-H1792, NCI-H1793 is higher in relative viability: 0.952 for the first, 1.23 for the second.

Compared with NCI-H1944, NCI-H2170 is lower in relative viability: 0.625 for the first, 0.264 for the second.

First: NCI-H2342
Second: SK-MES-1
The relative viability of the first is lower: 0.751 for the first, 0.805 for the second.

same assay, conditions: first compound 316.23 µM

Compared with 201T, A-427 is higher in relative viability: 0.289 for the first, 1 for the second.

Compared with BEN, CAL-12T is higher in relative viability: 0.812 for the first, 1.13 for the second.

Compared with COR-L23, COR-L 105 is higher in relative viability: 0.195 for the first, 1.29 for the second.

Going from ChaGo-K-1 to EKVX, the relative viability rises from 0.257 to 0.316.

Going from EMC-BAC-2 to EPLC-272H, the relative viability falls from 0.492 to 0.394.

Compared with H3255, HARA is lower in relative viability: 0.5 for the first, 0.301 for the second.

Compared with HCC-15, HCC-44 is higher in relative viability: 0.228 for the first, 0.531 for the second.

Compared with LK-2, NCI-H358 is lower in relative viability: 0.237 for the first, 0.162 for the second.

First: NCI-H522
Second: NCI-H1395
The relative viability of the first is higher: 1.12 for the first, 0.624 for the second.

Compared with NCI-H1563, NCI-H1648 is lower in relative viability: 0.89 for the first, 0.67 for the second.

First: NCI-H1792
Second: NCI-H1793
The relative viability of the first is lower: 0.697 for the first, 0.874 for the second.

Going from NCI-H1944 to NCI-H2170, the relative viability falls from 0.687 to 0.266.

First: NCI-H2342
Second: SK-MES-1
The relative viability of the first is higher: 0.786 for the first, 0.662 for the second.

SW 900 gave a relative viability of 0.507.

same assay, conditions: first compound 1000 µM

Going from 201T to A-427, the relative viability rises from 0.353 to 0.878.

First: BEN
Second: CAL-12T
The relative viability of the first is lower: 0.64 for the first, 0.97 for the second.

Going from COR-L23 to COR-L 105, the relative viability rises from 0.203 to 1.1.

Compared with ChaGo-K-1, EKVX is higher in relative viability: 0.256 for the first, 0.294 for the second.

First: EMC-BAC-2
Second: EPLC-272H
The relative viability of the first is higher: 0.48 for the first, 0.39 for the second.

First: H3255
Second: HARA
The relative viability of the first is higher: 0.564 for the first, 0.28 for the second.

First: HCC-15
Second: HCC-44
The relative viability of the first is lower: 0.22 for the first, 0.603 for the second.

Compared with LK-2, NCI-H358 is lower in relative viability: 0.306 for the first, 0.179 for the second.

First: NCI-H522
Second: NCI-H1395
The relative viability of the first is higher: 1.46 for the first, 0.488 for the second.

First: NCI-H1563
Second: NCI-H1648
The relative viability of the first is higher: 0.921 for the first, 0.713 for the second.

Compared with NCI-H1792, NCI-H1793 is higher in relative viability: 0.903 for the first, 1.22 for the second.

Going from NCI-H1944 to NCI-H2170, the relative viability falls from 0.576 to 0.267.

Going from NCI-H2342 to SK-MES-1, the relative viability falls from 0.752 to 0.708.

In the case of SW 900, the relative viability is reported as 0.477.
